Assay results taken from US20130303509A1, “NAMPT INHIBITORS” (AbbVie Inc., priority 2012, published 2013).

The molecules below were run on PC3 cells (assay: NAMPT Cell Proliferation Assay). Conditions: Homo sapiens, PC-3, 120 h, 5 days incubation, cell viability by Cell Titer Glo.
Type: cell-based
Summary of the method: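 Five-day CellTiter-Glo viability readout in PC3 cells grown in RPMI/10% heat-inactivated FBS. Compounds added after overnight attachment as a 10-fold dilution series, […]. Percent inhibition fitted to sigmoidal dose-response to derive IC50.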

Row | IC50 [nM] | SMILES
1 | 11.2 | O=C(Nc1ccc(C2CCN(C(=O)c3cc(F)cc(F)c3)CC2)cc1)[C@H]1CCN(c2cccnn2)C1 [Example 659, (3S)-N-{4-[1-(3,5-difluorobenzoyl)piperidin-4-yl]phenyl}-1-(pyridazin-3-yl)pyrrolidine-3-carboxamide]
2 | 2.52 | O=C(Nc1ccc(C2(F)CCN(C(=O)c3ccccc3F)CC2)cc1)C1CN(c2cccnn2)C1 [Example 857, N-{4-[4-fluoro-1-(2-fluorobenzoyl)piperidin-4-yl]phenyl}-1-(pyridazin-3-yl)azetidine-3-carboxamide]
3 | 80.6 | CC(C)(C)CC(=O)N1CCC(S(=O)(=O)c2ccc(NC(=O)C3CN(c4cccnn4)C3)cc2)CC1 [Example 595, N-(4-{[1-(3,3-dimethylbutanoyl)piperidin-4-yl]sulfonyl}phenyl)-1-(pyridazin-3-yl)azetidine-3-carboxamide]
4 | 0.18 | O=C(Nc1ccc(C2CCN(C(=O)c3ccoc3)CC2)cc1)C1CN(c2cccnc2)C1 [Example 104, N-{4-[1-(furan-3-ylcarbonyl)piperidin-4-yl]phenyl}-1-(pyridin-3-yl)azetidine-3-carboxamide]
5 | 9.22 | CO[C@@H](C(=O)N1CCC(c2ccc(NC(=O)[C@H]3CCN(c4cccnn4)C3)cc2)CC1)c1ccccc1 [Example 634, (3S)-N-(4-{1-[(2R)-2-methoxy-2-phenylacetyl]piperidin-4-yl}phenyl)-1-(pyridazin-3-yl)pyrrolidine-3-carboxamide]
6 | 1.12 | O=C(Nc1ccc(C2CCN(C(=O)c3cc(F)ccc3F)CC2)cc1)C1CN(c2cccnn2)C1 [Example 416, N-{4-[1-(2,5-difluorobenzoyl)piperidin-4-yl]phenyl}-1-(pyridazin-3-yl)azetidine-3-carboxamide]
7 | 8.41 | O=C(N[C@H]1CCN(c2cccnn2)C1)c1ccc(C2CCN(C(=O)c3ccccc3F)CC2)s1 [Example 763, 5-[1-(2-fluorobenzoyl)piperidin-4-yl]-N-[(3S)-1-(pyridazin-3-yl)pyrrolidin-3-yl]thiophene-2-carboxamide]
8 | 12.6 | O=C(Nc1ccc(OC2CCN(C(=O)c3ccccc3F)CC2)cc1)[C@H]1CCN(c2cccnn2)C1 [Example 797, (3S)-N-(4-{[1-(2-fluorobenzoyl)piperidin-4-yl]oxy}phenyl)-1-(pyridazin-3-yl)pyrrolidine-3-carboxamide]
9 | 0.56 | O=C(Nc1ccc(O[C@@H]2CCN(C(=O)c3nccs3)C2)cc1)C1CN(c2cccnn2)C1 [Example 484, 1-(pyridazin-3-yl)-N-(4-{[(3R)-1-(1,3-thiazol-2-ylcarbonyl)pyrrolidin-3-yl]oxy}phenyl)azetidine-3-carboxamide]
10 | 6.07 | COCCOCC(=O)N1CCC(c2ccc(NC(=O)C3CN(c4cccnn4)C3)cc2)CC1 [Example 335, N-(4-{1-[(2-methoxyethoxy)acetyl]piperidin-4-yl}phenyl)-1-(pyridazin-3-yl)azetidine-3-carboxamide]
11 | 50.9 | O=C(Nc1ccc(O[C@@H]2CCN(C(=O)Cc3cc(F)cc(F)c3)C2)cc1)C1CN(c2ccnnc2)C1 [Example 450, N-[4-({(3R)-1-[(3,5-difluorophenyl)acetyl]pyrrolidin-3-yl}oxy)phenyl]-1-(pyridazin-4-yl)azetidine-3-carboxamide]
12 | 2.3 | O=C(Nc1ccc(C2CCN(C(=O)c3ccccc3O)CC2)cc1)C1CN(c2cccnn2)C1 [Example 342, N-{4-[1-(2-hydroxybenzoyl)piperidin-4-yl]phenyl}-1-(pyridazin-3-yl)azetidine-3-carboxamide]
13 | 3.54 | CC(C)(C)CC(=O)N1CCC(c2ccc(NC(=O)C3CN(c4ccnnc4)C3)cc2)CC1 [Example 140, N-{4-[1-(3,3-dimethylbutanoyl)piperidin-4-yl]phenyl}-1-(pyridazin-4-yl)azetidine-3-carboxamide]
14 | 699 | Cc1ncccc1N1CC(C(=O)Nc2ccc(C3CCN(C(=O)c4cccc(Cl)c4)CC3)cc2)C1 [Example 153, N-{4-[1-(3-chlorobenzoyl)piperidin-4-yl]phenyl}-1-(2-methylpyridin-3-yl)azetidine-3-carboxamide]
15 | 80.9 | CC(=O)N[C@@H](CC(C)C)C(=O)N1CCC(c2ccc(NC(=O)[C@H]3CCN(c4cccnn4)C3)cc2)CC1 [Example 724, (3S)-N-{4-[1-(N-acetyl-L-leucyl)piperidin-4-yl]phenyl}-1-(pyridazin-3-yl)pyrrolidine-3-carboxamide]
16 | 58.7 | O=C(Nc1ccc(C2CCN(C(=O)Cc3ccc4ccccc4c3)CC2)cc1)[C@H]1CCN(c2cccnn2)C1 [Example 646, (3S)-N-{4-[1-(naphthalen-2-ylacetyl)piperidin-4-yl]phenyl}-1-(pyridazin-3-yl)pyrrolidine-3-carboxamide]
17 | 1.44 | O=C(Nc1ccc(C2CCN(C(=O)CCN3CCOCC3)CC2)cc1)C1CN(c2cccnc2)C1 [Example 124, N-(4-{1-[3-(morpholin-4-yl)propanoyl]piperidin-4-yl}phenyl)-1-(pyridin-3-yl)azetidine-3-carboxamide]

Row | IC50 [nM] | SMILES
18 | 1.01 | CO[C@@H](C(=O)N1CCC(c2ccc(NC(=O)C3CN(c4cccnn4)C3)cc2)CC1)c1ccccc1 [Example 407, N-(4-{1-[(2R)-2-methoxy-2-phenylacetyl]piperidin-4-yl}phenyl)-1-(pyridazin-3-yl)azetidine-3-carboxamide]
19 | 60.1 | CCCC(C)CN1CCC(c2ccc(NC(=O)C3CN(c4cccnc4)C3)cc2)CC1 (centres unmarked) [Example 90, N-{4-[1-(2-methylpentyl)piperidin-4-yl]phenyl}-1-(pyridin-3-yl)azetidine-3-carboxamide]
20 | 71.9 | CC(C)(C)C(=O)N1CCC(Oc2ccc(NC(=O)C3CN(c4ccnnc4)C3)cc2)CC1 [Example 280, N-(4-{[1-(2,2-dimethylpropanoyl)piperidin-4-yl]oxy}phenyl)-1-(pyridazin-4-yl)azetidine-3-carboxamide]
21 | 1.67 | O=C(Nc1ccc(C2CCN(C(=O)c3cncs3)CC2)cc1)C1CN(c2cccnn2)C1 [Example 431, 1-(pyridazin-3-yl)-N-{4-[1-(1,3-thiazol-5-ylcarbonyl)piperidin-4-yl]phenyl}azetidine-3-carboxamide]
22 | 3.76 | CC(C)(C)CC(=O)N1CCC(Oc2ccc(NC(=O)C3CN(c4cccnc4)C3)cc2)CC1 [Example 41, N-(4-{[1-(3,3-dimethylbutanoyl)piperidin-4-yl]oxy}phenyl)-1-(pyridin-3-yl)azetidine-3-carboxamide]
23 | 6.7 | O=C(Nc1ccc(OC2CCN(C(=O)Cc3cc(F)cc(F)c3)CC2)cc1)C1CN(c2cccnn2)C1 [Example 239, N-[4-({1-[(3,5-difluorophenyl)acetyl]piperidin-4-yl}oxy)phenyl]-1-(pyridazin-3-yl)azetidine-3-carboxamide]
24 | 1070 | Cc1ncccc1N1CC(C(=O)Nc2ccc(C3CCN(C(=O)CN4CCCC4)CC3)cc2)C1 [Example 166, 1-(2-methylpyridin-3-yl)-N-{4-[1-(pyrrolidin-1-ylacetyl)piperidin-4-yl]phenyl}azetidine-3-carboxamide]
25 | 2.17 | O=C(Nc1ccc(C2CCN(C(=O)Cc3cccc(F)c3F)CC2)cc1)C1CN(c2cccnn2)C1 [Example 419, N-(4-{1-[(2,3-difluorophenyl)acetyl]piperidin-4-yl}phenyl)-1-(pyridazin-3-yl)azetidine-3-carboxamide]
26 | 10.3 | O=C(Nc1ccc(C2CCN(C(=O)Cc3ccccc3F)CC2)cc1)[C@H]1CCN(c2cccnn2)C1 [Example 710, (3S)-N-(4-{1-[(2-fluorophenyl)acetyl]piperidin-4-yl}phenyl)-1-(pyridazin-3-yl)pyrrolidine-3-carboxamide]
27 | 1.96 | CC(=O)C(=O)N1CCC(c2ccc(NC(=O)C3CN(c4cccnn4)C3)cc2)CC1 [Example 438, N-{4-[1-(2-oxopropanoyl)piperidin-4-yl]phenyl}-1-(pyridazin-3-yl)azetidine-3-carboxamide]
28 | 2.42 | O=C(Nc1ccc(C2CCN(C(=O)CC3CCCCC3)CC2)cc1)C1CN(c2cccnn2)C1 [Example 340, N-{4-[1-(cyclohexylacetyl)piperidin-4-yl]phenyl}-1-(pyridazin-3-yl)azetidine-3-carboxamide]
29 | 93.4 | O=C(Nc1ccc(OC2CCN(C(=O)c3cccc(OC(F)(F)F)c3)CC2)cc1)C1CN(c2ccnnc2)C1 [Example 292, 1-(pyridazin-4-yl)-N-[4-({1-[3-(trifluoromethoxy)benzoyl]piperidin-4-yl}oxy)phenyl]azetidine-3-carboxamide]
30 | 329 | Cc1ncccc1N1CC(C(=O)Nc2ccc(C3CCN(C(=O)CCC(F)(F)F)CC3)cc2)C1 [Example 172, 1-(2-methylpyridin-3-yl)-N-{4-[1-(4,4,4-trifluorobutanoyl)piperidin-4-yl]phenyl}azetidine-3-carboxamide]
31 | 5.69 | Cc1ccncc1N1CC(C(=O)Nc2ccc(C3CCN(C(=O)C(C)(C)O)CC3)cc2)C1 [Example 72, N-{4-[1-(2-hydroxy-2-methylpropanoyl)piperidin-4-yl]phenyl}-1-(4-methylpyridin-3-yl)azetidine-3-carboxamide]
32 | 5.5 | O=C(Nc1ccc(OC2CCN(C(=O)c3ccsc3)CC2)cc1)C1CN(c2cccnn2)C1 [Example 223, 1-(pyridazin-3-yl)-N-(4-{[1-(thiophen-3-ylcarbonyl)piperidin-4-yl]oxy}phenyl)azetidine-3-carboxamide]
33 | 1.33 | CC(C)(C)C(=O)N1CCC(c2ccc(NC(=O)C3CN(c4ccnnc4)C3)cc2)CC1 [Example 559, N-{4-[1-(2,2-dimethylpropanoyl)piperidin-4-yl]phenyl}-1-(pyridazin-4-yl)azetidine-3-carboxamide]
34 | 24.2 | O=C(Nc1ccc(C2CCN(C(=O)Cc3ccc(C(F)(F)F)cc3)CC2)cc1)C1CN(c2ccnnc2)C1 [Example 563, 1-(pyridazin-4-yl)-N-[4-(1-{[4-(trifluoromethyl)phenyl]acetyl}piperidin-4-yl)phenyl]azetidine-3-carboxamide]

Row | SMILES | IC50 [nM]
35 | CC(C)(C)C(=O)N1C2CCC1CC(c1ccc(NC(=O)C3CN(c4cccnn4)C3)cc1)C2 (centres unmarked) [Example 844, N-{4-[8-(2,2-dimethylpropanoyl)-8-azabicyclo[3.2.1]oct-3-yl]phenyl}-1-(pyridazin-3-yl)azetidine-3-carboxamide] | 2.52
